According to US20250025488A1, “NUCLEIC ACIDS FOR INHIBITING EXPRESSION OF TMPRSS6 AND IRON CHELATORS” (SILENCE THERAPEUTICS GMBH, priority 2018, published 2025):

Test system: HFE−/− mice
Test: Liver iron concentrations, TMPRSS6 siRNA with or without Deferiprone, HFE−/− mice
Type: in vivo, mouse
Conditions: 3 mg/kg siRNA conjugate s.c. Day 1 or Day 1 and 22, Deferiprone 0.5 mg/ml in drinking water, Day 43
Method: Three months old C57BL6/J congenic female HFE knock-out mice (−/−) and three months old female C57BL6/J wild type mice (+/+) were used in this study (Herrmann et al., Mol. Med, 2004. 82 (1): p1-3). HFE−/− mice (n=8) were treated on Day 1 (1×) or on Day 1 and on Day 22 (2×) subcutaneously with either PBS (PBS) or 3 mg/kg TMPRSS6 siRNA conjugate (TMP) or 3 mg/kg non-targeting siRNA conjugate (Luc). In addition, cohort 7 to 10 received Deferiprone supplied in drinking water at a concentration of 0.5 mg/ml. Cohorts 1 and 2 were terminated on Day 1 (Predose) all other cohorts on Day 43 (6 weeks after start of the treatment) to collect serum and tissue samples for analyses. Treatment with TMPRSS6 siRNAs enhances the reduction of tissue iron levels by iron chelator. 3 months old HFE−/− (rodent model for hereditary hemochromatosis and iron overload) or wild type mice were used for this study and treated as described in Example 46. Liver tissue samples were collected to assess liver iron concentrations before start of the treatment (predose) and at the end of the study at Day 43 (6 weeks after start of treatments). Liver tissue samples were dried and iron concentrations from dry weights were determined by acid extraction method. At the start of the study liver iron levels were already elevated in HFE−/− compared to wild type control mice (Predose). […]

With `Cc1c(O)c(=O)ccn1C` [Deferiprone] as the compound, how does the Liver iron content read?
Its Liver iron content is “little to no effect on the liver iron content”.
